The target of series [1] is human CYP2D6 (Homo sapiens, UniProt P10635).
For series [2], the target named is T1, human CYP1A2 (Homo sapiens, UniProt P05177).
T1 sequence (P05177 1-516): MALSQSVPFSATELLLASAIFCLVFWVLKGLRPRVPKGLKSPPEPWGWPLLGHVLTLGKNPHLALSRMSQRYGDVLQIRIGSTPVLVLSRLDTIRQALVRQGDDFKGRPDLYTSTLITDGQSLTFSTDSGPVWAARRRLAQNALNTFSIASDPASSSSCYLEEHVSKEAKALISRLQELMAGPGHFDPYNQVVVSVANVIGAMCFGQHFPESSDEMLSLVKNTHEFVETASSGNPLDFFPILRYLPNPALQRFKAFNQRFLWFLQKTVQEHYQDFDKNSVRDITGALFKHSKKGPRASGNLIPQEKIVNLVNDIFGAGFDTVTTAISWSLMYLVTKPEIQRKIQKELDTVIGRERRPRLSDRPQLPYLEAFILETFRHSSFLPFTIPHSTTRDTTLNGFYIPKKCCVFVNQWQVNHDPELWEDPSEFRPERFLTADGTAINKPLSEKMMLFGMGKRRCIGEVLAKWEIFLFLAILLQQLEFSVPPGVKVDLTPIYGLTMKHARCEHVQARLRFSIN

The target of series [3] is Photinus pyralis (firefly) luciferase (Photinus pyralis, UniProt P08659). Put plainly: biochemical. Format: biochemical.
Series [4] addresses T2, human CYP2C9 (Homo sapiens, UniProt P11712).
In series [5] the target is T3, human CYP2C19 (Homo sapiens, UniProt P33261).
Series [6] deals with T1, human CYP1A2. The experiment in a line: biochemical.
Series [7] concerns the target T2, human CYP2C9. Put plainly: biochemical.
For series [8], the target named is T3, human CYP2C19. Put plainly: biochemical.
The mark [9] stands for this setting: CYP2C9 IC50 (half-maximal inhibitory concentration).
[10] abbreviates: CYP2C19 IC50 (half-maximal inhibitory concentration).

Where a name gives a salt, the structure may show the parent alone. Read-outs that look alike come from different tables or passages of the source.

Chain of Photinus pyralis (firefly) luciferase (P08659 whole entry): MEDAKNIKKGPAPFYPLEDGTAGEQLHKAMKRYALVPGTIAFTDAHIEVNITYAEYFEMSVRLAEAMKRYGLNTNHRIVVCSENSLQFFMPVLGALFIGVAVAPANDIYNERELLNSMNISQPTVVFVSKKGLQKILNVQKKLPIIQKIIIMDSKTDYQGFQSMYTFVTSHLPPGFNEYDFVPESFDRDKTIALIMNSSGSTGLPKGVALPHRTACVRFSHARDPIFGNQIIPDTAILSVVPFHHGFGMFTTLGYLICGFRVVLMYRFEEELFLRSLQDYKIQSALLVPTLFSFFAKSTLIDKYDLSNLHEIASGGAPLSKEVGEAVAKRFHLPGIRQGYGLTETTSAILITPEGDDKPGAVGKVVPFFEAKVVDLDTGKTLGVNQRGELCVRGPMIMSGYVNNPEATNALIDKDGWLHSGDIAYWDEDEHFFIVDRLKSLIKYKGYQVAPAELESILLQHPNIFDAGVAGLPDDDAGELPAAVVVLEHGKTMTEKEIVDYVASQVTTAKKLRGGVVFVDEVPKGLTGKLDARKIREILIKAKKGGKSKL
Chain of human CYP2D6 (P10635 whole entry): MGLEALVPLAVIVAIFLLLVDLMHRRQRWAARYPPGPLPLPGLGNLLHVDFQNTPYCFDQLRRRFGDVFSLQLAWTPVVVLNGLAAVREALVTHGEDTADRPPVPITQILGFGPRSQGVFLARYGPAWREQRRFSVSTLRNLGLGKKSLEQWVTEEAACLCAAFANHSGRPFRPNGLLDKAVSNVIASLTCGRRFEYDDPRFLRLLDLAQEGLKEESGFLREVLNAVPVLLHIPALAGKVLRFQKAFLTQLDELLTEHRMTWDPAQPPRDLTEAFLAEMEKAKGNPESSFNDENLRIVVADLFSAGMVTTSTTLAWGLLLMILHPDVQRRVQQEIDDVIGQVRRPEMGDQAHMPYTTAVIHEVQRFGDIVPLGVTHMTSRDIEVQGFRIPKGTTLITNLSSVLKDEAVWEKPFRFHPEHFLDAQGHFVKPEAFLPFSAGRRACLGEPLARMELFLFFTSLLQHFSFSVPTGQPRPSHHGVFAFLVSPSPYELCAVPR
T2 sequence (P11712 whole entry): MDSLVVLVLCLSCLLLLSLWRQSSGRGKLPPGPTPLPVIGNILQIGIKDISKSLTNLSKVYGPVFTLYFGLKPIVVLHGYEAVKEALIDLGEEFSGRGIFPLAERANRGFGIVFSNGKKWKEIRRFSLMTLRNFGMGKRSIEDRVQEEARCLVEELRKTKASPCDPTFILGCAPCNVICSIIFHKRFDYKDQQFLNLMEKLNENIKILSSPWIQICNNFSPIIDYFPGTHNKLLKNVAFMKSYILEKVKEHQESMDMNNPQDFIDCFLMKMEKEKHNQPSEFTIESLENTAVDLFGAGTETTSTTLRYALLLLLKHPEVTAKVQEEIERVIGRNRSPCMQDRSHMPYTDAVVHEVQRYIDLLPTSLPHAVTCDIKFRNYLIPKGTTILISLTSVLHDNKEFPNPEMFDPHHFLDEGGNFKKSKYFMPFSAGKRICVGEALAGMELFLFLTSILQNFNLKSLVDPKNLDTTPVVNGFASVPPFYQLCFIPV
T3 sequence (P33261 whole entry): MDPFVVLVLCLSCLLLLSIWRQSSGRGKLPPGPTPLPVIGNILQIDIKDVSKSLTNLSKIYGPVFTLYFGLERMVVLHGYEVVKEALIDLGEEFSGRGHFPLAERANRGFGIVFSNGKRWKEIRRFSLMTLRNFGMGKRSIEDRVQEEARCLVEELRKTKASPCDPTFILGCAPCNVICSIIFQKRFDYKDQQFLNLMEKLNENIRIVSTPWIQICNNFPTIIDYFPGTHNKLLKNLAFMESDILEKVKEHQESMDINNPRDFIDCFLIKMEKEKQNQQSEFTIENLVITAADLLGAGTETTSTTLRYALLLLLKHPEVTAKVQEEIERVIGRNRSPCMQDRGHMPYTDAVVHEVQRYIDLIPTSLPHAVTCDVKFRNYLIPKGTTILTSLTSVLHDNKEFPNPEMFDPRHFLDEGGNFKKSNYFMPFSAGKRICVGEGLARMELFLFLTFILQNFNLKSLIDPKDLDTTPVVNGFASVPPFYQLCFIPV

Turning to `Cl.Cl.c1ccc(CNCCNCc2ccccc2)cc1`, in series [1], the “CYP2D6 Efficacy” value is listed as 0.79 ± 0.18 (-110 ± 5) %. In series [2], the “CYP1A2 Efficacy” value is 20.22 ± 5.13 (-47 ± 10) %. Also, the “Luciferase IC50” value in series [3] is “Inactive”. In addition, in series [4], the “CYP2C9 IC50” value is “Inactive”. In addition, in series [5], the “CYP2C19 Efficacy” value was 8.08 ± 0.55 (-122 ± 16) %.

In the case of `CCCCCCCCCCCCCCCC[N+](C)(C)Cc1ccccc1.[Cl-]` [Benzylhexadecyldimethylammonium chloride], in series [1], the “CYP2D6 Efficacy” value was 0.34 ± 0.06 (-98 ± 2) %. Further, in series [2], the “CYP1A2 Efficacy” value is reported as 75.23 ± 5.09 (-82 ± 8) %. Besides, the “Luciferase IC50” value in series [3] is reported as “Inactive”. Besides, the “CYP2C9 Efficacy” value in series [4] is 46.2 ± 8.63 (-120 ± 17) %. In addition, the “CYP2C19 Efficacy” value in series [5] is recorded as 46.97 ± 13.09 (-144 ± 26) %.

Consider `C[C@@H](NCCCc1cccc(C(F)(F)F)c1)c1cccc2ccccc12` [Cinacalcet hydrochloride], for which the IC50 in series [6] was 26.9 ± 8.25 µM; in series [7], 38.9 µM; in series [1] (human) it was 0.05 µM; in series [8], 10.8 ± 2.69 µM. Moreover, in series [3], the “Luciferase IC50” value is on record as “Inactive”.

Consider `C[C@@H](Cc1ccccc1)NCc1ccccc1Cl.Cl` [Clobenzorex hydrochloride], for which the “CYP2D6 Efficacy” value in series [1] was 0.15 ± 0.03 (-111 ± 2) %. The “CYP1A2 Efficacy” value in series [2] is 15.49 ± 0 (-71 ± 4) %. In series [3], the “Luciferase IC50” value is listed as “Inactive”. The “CYP2C9 IC50” value in series [4] is listed as “Inactive”. Further, in series [5], the “CYP2C19 Efficacy” value is reported as 1.49 ± 0.1 (-137 ± 12) %.

With `O=c1c(-c2ccc(O)cc2)coc2cc(O)ccc12` [Daidzein], the IC50 turned out to be 28.3 µM in series [6] (CYP1A2 IC50 (half-maximal inhibitory concentration)), 0.36 µM in series [7] (setting [9]), 19.6 µM in series [3] and 36.4 µM in series [8] (setting [10]). The “CYP2D6 IC50 (half-maximal inhibitory concentration)” value in series [1] was “Inactive”.

In the case of `CCOP(=S)(OCC)Oc1cc(C)nc(C(C)C)n1` [Diazinon], the IC50 is 7.13 µM in series [6] (CYP1A2 IC50), 1.99 µM in series [7] (CYP2C9 IC50) and 0.44 µM in series [8] (CYP2C19 IC50). Further, the “CYP2D6 IC50” value in series [1] is reported as “Inactive”. In addition, the “Luciferase IC50” value in series [3] is on record as “Inactive”.

With `CC#C[C@]1(O)CC[C@H]2[C@@H]3C[C@H](C)C4=CC(=O)CC[C@]4(C)[C@H]3CC[C@@]21C` [Dimethisteron], the IC50 in series [7] (CYP2C9 IC50) was determined as 24.1 µM; in series [8] (CYP2C19 IC50), 9.42 µM. For the same molecule, the “CYP2D6 IC50” value in series [1] is given as “Inactive”. Besides, the “CYP1A2 IC50” value in series [2] was “Inactive”. In series [3], the “Luciferase IC50” value was “Inactive”.

As to `ClC1=C(Cl)C2(Cl)C3C4CC(C5OC45)C3C1(Cl)C2(Cl)Cl` (stereo not shown) [Endrin], the IC50 in series [6] (CYP1A2 IC50) is 54 µM; in series [7] (CYP2C9 IC50), 12.4 µM; in series [8] (CYP2C19 IC50) it was 26.6 µM. The “CYP2D6 IC50” value in series [1] was “Inactive”. In addition, in series [3], the “Luciferase IC50” value is “Inactive”.

`CCC(CN)=C(c1ccccc1)c1ccccc1.Cl` [Etifelmine hydrochloride]: the “CYP2D6 Efficacy” value in series [1] is given as 4.07 ± 0.52 (-106 ± 3) %. For the same molecule, the “CYP1A2 Efficacy” value in series [2] is 14.36 ± 3.71 (-50 ± 13) %. For the same molecule, the “Luciferase IC50” value in series [3] is “Inactive”. In addition, the “CYP2C9 Efficacy” value in series [4] is given as 11.85 ± 3.88 (-96 ± 8) %. In addition, in series [5], the “CYP2C19 Efficacy” value is on record as 5.99 ± 2.37 (-107 ± 10) %.

Take `C#Cc1ccc(-c2ccccc2F)cc1` [Fluretofene]: the IC50 in series [6] came out at 0.88 µM; in series [7], 16.1 µM; in series [3] it was 25.8 µM; in series [8], 25.7 µM.

Consider `CCCCCCCCCCCCCCCC[N+](C)(C)C.[Cl-]` [Hexadecyl trimethyl ammonium chloride], for which the “CYP2D6 Efficacy” value in series [1] is on record as 0.8 ± 0.05 (-93 ± 8) %. Moreover, in series [2], the “CYP1A2 IC50” value is reported as “Inactive”. Besides, the “Luciferase IC50” value in series [3] was “Inactive”. Further, the “CYP2C9 IC50” value in series [4] was “Inactive”. In addition, the “CYP2C19 Efficacy” value in series [5] is given as 43.2 ± 0.0 (-68 ± 16) %.

For `Clc1ccc(C(Cn2ccnc2)OCc2c(Cl)cccc2Cl)c(Cl)c1` (stereo not shown) [Isoconazole nitrate], the “Luciferase IC50 (half-maximal inhibitory concentration)” value in series [3] is on record as “Inactive”.

For `CCC(C)n1ncn(-c2ccc(N3CCN(c4ccc(OCC5COC(Cn6cncn6)(c6ccc(Cl)cc6Cl)O5)cc4)CC3)cc2)c1=O` (stereo not shown) [Itraconazole], the results for the IC50 in series [7] (setting [9]) and in series [8] (setting [10]) were 14 µM and 8.3 µM, respectively. Moreover, the “CYP2D6 IC50 (half-maximal inhibitory concentration)” value in series [1] is recorded as “Inactive”. Besides, the “CYP1A2 IC50 (half-maximal inhibitory concentration)” value in series [2] is recorded as “Inactive”. Moreover, the “Luciferase IC50 (half-maximal inhibitory concentration)” value in series [3] is recorded as “Inactive”. Moreover, the “CYP2C9 Efficacy (in parenthesis)” value in series [4] (human) is listed as 14.05 ± 3.21 (-81 ± 13) %. For the same molecule, in series [5] (human), the “CYP2C19 Efficacy (in parenthesis)” value is reported as 8.3 ± 4.22 (-53 ± 15) %.

As to `CNCCCC12CCC(c3ccccc31)c1ccccc12` [Maprotiline hydrochloride], the “Luciferase IC50” value in series [3] is recorded as “Inactive”.

Consider `CCN(CCCCOC(=O)c1ccc(OC)c(OC)c1)C(C)Cc1ccc(OC)cc1` (stereo not shown) [Mebeverine hydrochloride], for which the “Luciferase IC50 (half-maximal inhibitory concentration)” value in series [3] is “Inactive”.

On to `CCCNC(C)(C)COC(=O)c1ccccc1` [Meprylcaine hydrochloride], for which the “Luciferase IC50 (half-maximal inhibitory concentration)” value in series [3] was “Inactive”.

For the molecule `CN1C[C@H](CNC(=O)OCc2ccccc2)C[C@@H]2c3cccc4c3c(cn4C)C[C@H]21` [Metergoline], the “Luciferase IC50” value in series [3] was “Inactive”.

For `CC[C@@H](CO)NC(=O)[C@@H]1C=C2c3cccc4[nH]cc(c34)C[C@H]2N(C)C1` [Methergine], the “Luciferase IC50” value in series [3] was “Inactive”.

`CN(C)c1ccc2nc3ccc(=[N+](C)C)cc-3sc2c1` [Methylene blue] had an IC50 in series [3] of 29.1 µM.

Regarding `CC#C[C@]1(O)CC[C@H]2[C@@H]3CCC4=CC(=O)CCC4=C3[C@@H](c3ccc(N(C)C)cc3)C[C@@]21C` [Mifepristone], the “Luciferase IC50” value in series [3] is recorded as “Inactive”.

On to `COCCOC(=O)C1=C(C)NC(C)=C(C(=O)OC(C)C)C1c1cccc([N+](=O)[O-])c1` (stereo not shown) [Nimodipine], for which the “Luciferase IC50 (half-maximal inhibitory concentration)” value in series [3] is listed as “Inactive”.

On to `Cc1ccc2nc(N)[nH]c(=O)c2c1Sc1ccncc1.Cl.Cl` [Nolatrexed dihydrochloride], for which the “CYP2D6 Efficacy” value in series [1] is 14.43 ± 1.84 (-95 ± 12) %. Moreover, the “CYP1A2 Efficacy” value in series [2] was 3.33 ± 0.9 (-94 ± 12) %. In addition, the “Luciferase IC50” value in series [3] was “Inactive”. In series [4], the “CYP2C9 Efficacy” value is 4.82 ± 1.17 (-95 ± 9) %. For the same molecule, in series [5], the “CYP2C19 Efficacy” value was 3.3 ± 1.68 (-116 ± 1) %.

For `COc1cc(NC(C)CCCN)c2ncccc2c1` (stereo not shown) [Primaquine diphosphate], the “Luciferase IC50 (half-maximal inhibitory concentration)” value in series [3] is given as “Inactive”.

Turning to `CCCNCC(O)COc1ccccc1C(=O)CCc1ccccc1` (stereo not shown) [Propafenone hydrochloride], in series [3], the “Luciferase IC50 (half-maximal inhibitory concentration)” value is “Inactive”.

For the molecule `O=C(c1ccc(OCCN2CCCCC2)cc1)c1c(-c2ccc(O)cc2)sc2cc(O)ccc12` [Raloxifene hydrochloride], the “Luciferase IC50 (half-maximal inhibitory concentration)” value in series [3] is on record as “Inactive”.

On to `CSc1ccc2c(c1)N(CCC1CCCCN1C)c1ccccc1S2` (stereo not shown) [Thioridazine hydrochloride], for which the “Luciferase IC50 (half-maximal inhibitory concentration)” value in series [3] is given as “Inactive”.

For the molecule `Clc1ccccc1CN1CCc2sccc2C1` [Ticlopidine hydrochloride], the IC50 in series [3] is 8.71 µM.

With `CCCCCCCCCCCCCCCCCC(=O)O.OCCN(CCO)CCO` [Triethanolamine stearate], in series [1], the “CYP2D6 Efficacy (in parenthesis)” value is 35.34 ± 0 (-82 ± 6) % and the IC50 was 35.3 µM. For the same molecule, in series [2], the “CYP1A2 Efficacy (in parenthesis)” value is listed as 3.98 ± 2.02 (-97 ± 4) % and the IC50 came to 3.98 µM. The “Luciferase Efficacy (in parenthesis)” value in series [3] is listed as 74.82 ± 6.08 (-26 ± 14) %. Besides, the IC50 in series [3] (read-out: Luciferase IC50 (half-maximal inhibitory concentration)) was 74.8 µM. In series [4], the “CYP2C9 Efficacy (in parenthesis)” value is 1.38 ± 0.34 (-98 ± 6) % and the IC50 is 1.38 µM. Besides, in series [5], the “CYP2C19 Efficacy (in parenthesis)” value is 0.42 ± 0.18 (-127 ± 1) % and the IC50 was found to be 0.42 µM.

For `CC(CN(C)C)CN1c2ccccc2Sc2ccccc21.CC(CN(C)C)CN1c2ccccc2Sc2ccccc21.O=C(O)C(O)C(O)C(=O)O` (stereo not shown) [Trimeprazine tartrate], the “Luciferase IC50 (half-maximal inhibitory concentration)” value in series [3] was “Inactive”.

Consider `CCOc1ccccc1OCC1CNCCO1` (stereo not shown) [Viloxazine hydrochloride], for which the “Luciferase IC50 (half-maximal inhibitory concentration)” value in series [3] is “Inactive”.

On to `CC(C)c1nc(CN(C)C(=O)N[C@H](C(=O)N[C@@H](Cc2ccccc2)C[C@H](O)[C@H](Cc2ccccc2)NC(=O)OCc2cncs2)C(C)C)cs1` [ritonavir, reference compound], for which the “Luciferase IC50 (half-maximal inhibitory concentration)” value in series [3] is given as “Inactive”.

As to Diniconazole, the “Luciferase IC50 (half-maximal inhibitory concentration)” value in series [3] was “Inactive”.

Take HMR1171 trifluoroacetate (1:1): the IC50 in series [1] worked out at 8.87 µM; in series [4], 28.1 µM; in series [5], 28.3 µM. Moreover, the “CYP1A2 IC50” value in series [2] is on record as “Inactive”. Besides, the “Luciferase IC50” value in series [3] is “Inactive”.

Consider Kadethrin, for which the “Luciferase IC50” value in series [3] is reported as “Inactive”.

The record behind these values is PMC12155096 (International Journal of Molecular Sciences, 2025).
